How the values were obtained:
[1] = system: barnyardgrass (Echinochloa crus-galli); assay: Test A preemergence, visual injury rating 0-100 (0 no effect, 100 complete control); format: in vivo; conditions: for Barnyardgrass plant response rating: 31 g ai/ha, 0 to 100 scale (0 no effect, 100 complete control), approx. 10 days; for Barnyardgrass plant response rating (0 to 100 scale): 125 g ai/ha
[2] = system: ragweed (common ragweed, Ambrosia elatior); assay: Test A postemergence, visual injury rating 0-100; format: in vivo; conditions: 0 to 100 scale
[3] = system: barnyardgrass (Echinochloa crus-galli); assay: Test A postemergence, visual injury rating 0-100; format: in vivo; conditions: 0 to 100 scale
[4] = system: ryegrass, Italian (Italian ryegrass, Lolium multiflorum); assay: Test A postemergence, visual injury rating 0-100; format: in vivo; conditions: 0 to 100 scale
[5] = system: kochia (Kochia scoparia); assay: Test A postemergence, visual injury rating 0-100; format: in vivo; conditions: 0 to 100 scale
[6] = system: wheat (Triticum aestivum); assay: Test A postemergence, visual injury rating 0-100; format: in vivo; conditions: 0 to 100 scale
[7] = system: corn (Zea mays); assay: Test A postemergence, visual injury rating 0-100; format: in vivo; conditions: 0 to 100 scale
[8] = system: foxtail, green (green foxtail, Setaria viridis); assay: Test A postemergence, visual injury rating 0-100; format: in vivo; conditions: 0 to 100 scale
[9] = system: galium (catchweed bedstraw, Galium aparine); assay: Test A postemergence, visual injury rating 0-100; format: in vivo; conditions: 0 to 100 scale
[10] = system: pigweed (Amaranthus retroflexus); assay: Test A postemergence, visual injury rating 0-100; format: in vivo; conditions: 0 to 100 scale
[11] = system: blackgrass (Alopecurus myosuroides); assay: Test A postemergence, visual injury rating 0-100; format: in vivo; conditions: 0 to 100 scale
[12] = system: barnyardgrass (Echinochloa crus-galli); assay: Test B flooded paddy test, visual rating 0-100; conditions: Flood, 250 g ai/ha, applied to paddy water, rated after 13 to 15 days
[13] = system: ragweed (common ragweed, Ambrosia elatior); assay: Test A preemergence, visual injury rating 0-100; format: in vivo; conditions: for Ragweed plant response rating: 31 g ai/ha, 0 to 100 scale (0 no effect, 100 complete control), approx. 10 days; for Ragweed plant response rating (0 to 100 scale): 125 g ai/ha
[14] = system: ryegrass, Italian (Italian ryegrass, Lolium multiflorum); assay: Test A preemergence, visual injury rating 0-100; format: in vivo; conditions: for Ryegrass, Italian plant response rating: 31 g ai/ha, 0 to 100 scale (0 no effect, 100 complete control), approx. 10 days; for Ryegrass, Italian plant response rating (0 to 100 scale): 125 g ai/ha
[15] = system: kochia (Kochia scoparia); assay: Test A preemergence, visual injury rating 0-100; format: in vivo; conditions: for Kochia plant response rating: 31 g ai/ha, 0 to 100 scale (0 no effect, 100 complete control), approx. 10 days; for Kochia plant response rating (0 to 100 scale): 125 g ai/ha
[16] = system: foxtail, green (green foxtail, Setaria viridis); assay: Test A preemergence, visual injury rating 0-100; format: in vivo; conditions: for Foxtail, Green plant response rating: 31 g ai/ha, 0 to 100 scale (0 no effect, 100 complete control), approx. 10 days; for Foxtail, Green plant response rating (0 to 100 scale): 125 g ai/ha
[17] = system: pigweed (Amaranthus retroflexus); assay: Test A preemergence, visual injury rating 0-100; format: in vivo; conditions: for Pigweed plant response rating: 31 g ai/ha, 0 to 100 scale (0 no effect, 100 complete control), approx. 10 days; for Pigweed plant response rating (0 to 100 scale): 125 g ai/ha
[18] = system: rice (Oryza sativa); assay: Test B flooded paddy test, visual rating 0-100 (0 no effect, 100 complete control); conditions: Flood, 250 g ai/ha, applied to paddy water, rated after 13 to 15 days
[19] = system: ducksalad (Heteranthera limosa); assay: Test B flooded paddy test, visual rating 0-100; conditions: Flood, 250 g ai/ha, applied to paddy water, rated after 13 to 15 days

**Q.** With CC1=[N+]([O-])[C@H](C(=O)Nc2cccc(F)c2F)[C@@H](c2ccc(C(F)(F)F)cc2)C1 [Compound 30, (2S,3R)—N-(2,3-difluorophenyl)-3,4-dihydro-5-methyl-3-[4-(trifluoromethyl)phenyl]-2H-pyrrole-2-carboxamide 1-oxide] as the molecule, how does the “Barnyardgrass plant response rating” value [1] read?
**A.** The value was 100.

**Q.** What about the “Barnyardgrass plant response rating (0 to 100 scale)” value [1] of the same molecule?
**A.** The value was 100.

**Q.** What about the “Ragweed plant response rating” value ([2]; 31 g ai/ha) of the same molecule?
**A.** The value was 0.

**Q.** What about the “Ragweed plant response rating” value ([2]; 125 g ai/ha) of the same molecule?
**A.** The value was 40.

**Q.** What about the “Barnyardgrass plant response rating” value ([3]; 31 g ai/ha) of the same molecule?
**A.** The value was 30.

**Q.** And the “Barnyardgrass plant response rating” value ([3]; 125 g ai/ha)?
**A.** Its value is 70.

**Q.** And the “Ryegrass, Italian plant response rating” value ([4]; 31 g ai/ha)?
**A.** Its value is 20.

**Q.** What about the “Ryegrass, Italian plant response rating” value ([4]; 125 g ai/ha) of the same molecule?
**A.** Its value is 50.

**Q.** What about the “Kochia plant response rating” value ([5]; 31 g ai/ha) of the same molecule?
**A.** Its value is 0.

**Q.** And the “Kochia plant response rating” value ([5]; 125 g ai/ha)?
**A.** The value was 0.

**Q.** And the “Wheat plant response rating” value ([6]; 31 g ai/ha)?
**A.** The value was 40.

**Q.** And the “Wheat plant response rating” value ([6]; 125 g ai/ha)?
**A.** The value was 50.

**Q.** What about the “Corn plant response rating” value ([7]; 31 g ai/ha) of the same molecule?
**A.** Its value is 0.

**Q.** And the “Corn plant response rating” value ([7]; 125 g ai/ha)?
**A.** The value was 70.

**Q.** And the “Foxtail, Green plant response rating” value ([8]; 31 g ai/ha)?
**A.** The value was 30.

**Q.** What about the “Foxtail, Green plant response rating” value ([8]; 125 g ai/ha) of the same molecule?
**A.** The value was 80.

**Q.** And the “Galium plant response rating” value ([9]; 31 g ai/ha)?
**A.** Its value is 50.

**Q.** What about the “Galium plant response rating” value ([9]; 125 g ai/ha) of the same molecule?
**A.** Its value is 50.

**Q.** What about the “Pigweed plant response rating” value ([10]; 31 g ai/ha) of the same molecule?
**A.** The value was 20.

**Q.** And the “Pigweed plant response rating” value ([10]; 125 g ai/ha)?
**A.** The value was 30.

**Q.** And the “Blackgrass plant response rating” value ([11]; 31 g ai/ha)?
**A.** Its value is 30.

**Q.** And the “Blackgrass plant response rating” value ([11]; 125 g ai/ha)?
**A.** Its value is 60.

**Q.** What about the “Barnyardgrass plant response rating (0 to 100 scale)” value [12] of the same molecule?
**A.** Its value is 85.

**Q.** And the “Ragweed plant response rating” value [13]?
**A.** Its value is 30.

**Q.** What about the “Ragweed plant response rating (0 to 100 scale)” value [13] of the same molecule?
**A.** Its value is 90.

**Q.** What about the “Ryegrass, Italian plant response rating” value [14] of the same molecule?
**A.** The value was 0.

**Q.** And the “Ryegrass, Italian plant response rating (0 to 100 scale)” value [14]?
**A.** Its value is 90.

**Q.** And the “Kochia plant response rating” value [15]?
**A.** The value was 0.

**Q.** What about the “Kochia plant response rating (0 to 100 scale)” value [15] of the same molecule?
**A.** The value was 80.

**Q.** And the “Foxtail, Green plant response rating” value [16]?
**A.** The value was 100.

**Q.** And the “Foxtail, Green plant response rating (0 to 100 scale)” value [16]?
**A.** The value was 100.

**Q.** And the “Pigweed plant response rating” value [17]?
**A.** Its value is 0.

**Q.** What about the “Pigweed plant response rating (0 to 100 scale)” value [17] of the same molecule?
**A.** The value was 90.

**Q.** And the “Rice plant response rating (0 to 100 scale)” value [18]?
**A.** The value was 50.

**Q.** What about the “Ducksalad plant response rating (0 to 100 scale)” value [19] of the same molecule?
**A.** Its value is 100.

**Q.** What about the melting point of the same molecule?
**A.** Its melting point is 113 to 117 °C.

**Q.** With CC1=[N+]([O-])[C@H](C(=O)Nc2cccc(F)c2F)[C@@H](c2ccc(Cl)cc2)C1 [Compound 40, (2S,3R)-3-(4-chlorophenyl)-N-(2,3-difluorophenyl)-3,4-dihydro-5-methyl-2H-pyrrole-2-carboxamide 1-oxide] as the molecule, how does the “Barnyardgrass plant response rating” value [1] read?
**A.** Its value is 100.

**Q.** What about the “Barnyardgrass plant response rating (0 to 100 scale)” value [1] of the same molecule?
**A.** Its value is 100.

**Q.** What about the “Ragweed plant response rating” value ([2]; 31 g ai/ha) of the same molecule?
**A.** The value was 0.

**Q.** And the “Ragweed plant response rating” value ([2]; 125 g ai/ha)?
**A.** The value was 0.

**Q.** What about the “Barnyardgrass plant response rating” value ([3]; 31 g ai/ha) of the same molecule?
**A.** Its value is 80.

**Q.** And the “Barnyardgrass plant response rating” value ([3]; 125 g ai/ha)?
**A.** Its value is 90.

**Q.** What about the “Ryegrass, Italian plant response rating” value ([4]; 31 g ai/ha) of the same molecule?
**A.** Its value is 0.

**Q.** What about the “Ryegrass, Italian plant response rating” value ([4]; 125 g ai/ha) of the same molecule?
**A.** The value was 20.

**Q.** What about the “Kochia plant response rating” value ([5]; 31 g ai/ha) of the same molecule?
**A.** The value was 0.

**Q.** What about the “Kochia plant response rating” value ([5]; 125 g ai/ha) of the same molecule?
**A.** Its value is 0.

**Q.** And the “Wheat plant response rating” value ([6]; 31 g ai/ha)?
**A.** Its value is 0.

**Q.** What about the “Wheat plant response rating” value ([6]; 125 g ai/ha) of the same molecule?
**A.** Its value is 10.

**Q.** What about the “Corn plant response rating” value ([7]; 31 g ai/ha) of the same molecule?
**A.** The value was 20.

**Q.** What about the “Corn plant response rating” value ([7]; 125 g ai/ha) of the same molecule?
**A.** The value was 30.

**Q.** And the “Foxtail, Green plant response rating” value ([8]; 31 g ai/ha)?
**A.** Its value is 40.

**Q.** What about the “Foxtail, Green plant response rating” value ([8]; 125 g ai/ha) of the same molecule?
**A.** The value was 80.

**Q.** What about the “Galium plant response rating” value ([9]; 31 g ai/ha) of the same molecule?
**A.** Its value is 10.

**Q.** What about the “Galium plant response rating” value ([9]; 125 g ai/ha) of the same molecule?
**A.** Its value is 60.

**Q.** And the “Pigweed plant response rating” value ([10]; 31 g ai/ha)?
**A.** Its value is 0.

**Q.** What about the “Pigweed plant response rating” value ([10]; 125 g ai/ha) of the same molecule?
**A.** Its value is 0.

**Q.** And the “Blackgrass plant response rating” value ([11]; 31 g ai/ha)?
**A.** The value was 0.

**Q.** And the “Blackgrass plant response rating” value ([11]; 125 g ai/ha)?
**A.** Its value is 60.

**Q.** And the “Barnyardgrass plant response rating (0 to 100 scale)” value [12]?
**A.** Its value is 80.

**Q.** What about the “Ragweed plant response rating” value [13] of the same molecule?
**A.** The value was 20.

**Q.** And the “Ragweed plant response rating (0 to 100 scale)” value [13]?
**A.** The value was 80.

**Q.** And the “Ryegrass, Italian plant response rating” value [14]?
**A.** Its value is 0.

**Q.** And the “Ryegrass, Italian plant response rating (0 to 100 scale)” value [14]?
**A.** Its value is 10.

**Q.** And the “Kochia plant response rating” value [15]?
**A.** The value was 0.

**Q.** What about the “Kochia plant response rating (0 to 100 scale)” value [15] of the same molecule?
**A.** Its value is 80.

**Q.** And the “Foxtail, Green plant response rating” value [16]?
**A.** The value was 100.

**Q.** And the “Foxtail, Green plant response rating (0 to 100 scale)” value [16]?
**A.** The value was 100.

**Q.** What about the “Pigweed plant response rating” value [17] of the same molecule?
**A.** The value was 0.

**Q.** What about the “Pigweed plant response rating (0 to 100 scale)” value [17] of the same molecule?
**A.** The value was 80.

**Q.** What about the “Rice plant response rating (0 to 100 scale)” value [18] of the same molecule?
**A.** The value was 25.

**Q.** What about the “Ducksalad plant response rating (0 to 100 scale)” value [19] of the same molecule?
**A.** Its value is 95.
